ChEMBL document CHEMBL1201862, “PubChem BioAssay data set” (2004)
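Protocol summary: plate cells (96-well), add compound at 5 concentrations, incubate 48 h, interpolate endpoints linearly. GI50: concentration for 50% inhibition of growth.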 The source made the active and inactive calls. No stated cut-off is given here; in the data, active = GI50 up to about 1.1 µM and inactive = higher.

Legend:
Test in all cases: NCI anticancer screen, dose series, 48 h
SF-539 = system: SF-539
M14 = system: M14
OVCAR-8 = system: OVCAR-8
OVCAR-5 = system: OVCAR-5
SNB-75 = system: SNB-75
U-251 = system: U-251
EKVX = system: EKVX
HOP-92 = system: HOP-92
HT-29 = system: HT-29
SK-MEL-28 = system: SK-MEL-28
786-0 = system: 786-0
SN12C = system: SN12C
HL-60 = system: HL-60
UO-31 = system: UO-31
NCI-H522 = system: NCI-H522
SK-OV-3 = system: SK-OV-3
NCI-H226 = system: NCI-H226
UACC-62 = system: UACC-62
COLO 205 = system: COLO 205

Measured: GI50

Oc1nc(CC(O)c2ccc(Cl)c(Cl)c2)cc(-c2ccccc2)n1 (stereo unspecified)
inactive: SF-539 > 100 µM | M14 91 µM | OVCAR-8 > 100 µM | OVCAR-5 11.2 µM | SNB-75 33 µM | U-251 > 100 µM | EKVX 44.9 µM | HOP-92 82.8 µM | HT-29 40.5 µM | SK-MEL-28 > 100 µM | 786-0 > 100 µM | SN12C > 100 µM | HL-60 25.1 µM | UO-31 26.2 µM | NCI-H522 22.6 µM | SK-OV-3 43.6 µM | NCI-H226 55.8 µM | UACC-62 45.5 µM | COLO 205 17.3 µM

COc1cccc(/C=C/C(=O)c2sc(C(N)=S)nc2C)c1O
inactive: SF-539 52.7 µM | M14 > 77.4 µM | OVCAR-8 > 96.2 µM | OVCAR-5 > 100 µM | SNB-75 > 100 µM | U-251 28.8 µM | EKVX > 100 µM | HOP-92 > 100 µM | HT-29 > 100 µM | SK-MEL-28 > 100 µM | 786-0 34.8 µM | SN12C > 100 µM | HL-60 22.2 µM | UO-31 56.4 µM | NCI-H522 > 48.3 µM | SK-OV-3 > 100 µM | NCI-H226 > 100 µM | UACC-62 > 100 µM | COLO 205 > 68.2 µM

CC1CCC(=O)C(C(O)CC2CC(=O)N(c3ccccc3)C(=O)C2)C1 (stereo unspecified)
inactive: SF-539 > 100 µM | M14 > 100 µM | OVCAR-8 > 100 µM | OVCAR-5 > 100 µM | SNB-75 > 100 µM | U-251 > 100 µM | EKVX > 100 µM | HOP-92 > 100 µM | HT-29 > 100 µM | SK-MEL-28 > 100 µM | 786-0 > 100 µM | SN12C > 100 µM | HL-60 > 100 µM | UO-31 > 100 µM | NCI-H522 > 100 µM | SK-OV-3 > 100 µM | NCI-H226 > 100 µM | UACC-62 > 100 µM | COLO 205 > 100 µM

CC1=C(C(=O)Nc2ccccc2C)C(c2ccc(Cl)c(Cl)c2)C(C(=O)Nc2ccccc2C)=C(C)N1
inactive: SF-539 25.5 µM | M14 16.6 µM | OVCAR-8 37.2 µM | OVCAR-5 23.1 µM | SNB-75 36.5 µM | U-251 19.3 µM | EKVX 34.1 µM | HOP-92 14.4 µM | HT-29 20 µM | SK-MEL-28 25.8 µM | 786-0 24.7 µM | SN12C 18.7 µM | HL-60 15.1 µM | UO-31 25.7 µM | NCI-H522 14.5 µM | SK-OV-3 22.9 µM | NCI-H226 15.2 µM | UACC-62 17.4 µM | COLO 205 16.4 µM

CC(=O)n1nnc2ccc([N+](=O)[O-])cc21
inactive: SF-539 > 100 µM | M14 > 100 µM | OVCAR-8 > 100 µM | OVCAR-5 > 100 µM | SNB-75 > 100 µM | U-251 > 100 µM | EKVX > 100 µM | HOP-92 > 100 µM | HT-29 > 100 µM | SK-MEL-28 > 100 µM | 786-0 > 100 µM | SN12C > 100 µM | HL-60 > 100 µM | UO-31 > 100 µM | NCI-H522 > 100 µM | SK-OV-3 > 100 µM | NCI-H226 > 100 µM | UACC-62 > 100 µM | COLO 205 > 100 µM

CC(=O)C1CC(C)=CCC12C(=O)Nc1ccccc12 (stereo unspecified)
inactive: SF-539 > 100 µM | M14 > 100 µM | OVCAR-8 > 100 µM | OVCAR-5 > 100 µM | SNB-75 > 100 µM | U-251 > 100 µM | EKVX > 100 µM | HOP-92 > 100 µM | HT-29 > 100 µM | SK-MEL-28 > 100 µM | 786-0 > 100 µM | SN12C > 100 µM | HL-60 > 100 µM | NCI-H522 > 100 µM | SK-OV-3 > 100 µM | NCI-H226 > 100 µM | UACC-62 68.1 µM | COLO 205 > 100 µM

COc1ccc2c(c1)c(=O)c1ccccc1n2/C=C/C(=O)O
inactive: SF-539 > 100 µM | M14 > 100 µM | OVCAR-8 > 100 µM | OVCAR-5 > 100 µM | SNB-75 > 100 µM | U-251 > 27 µM | EKVX > 100 µM | HOP-92 > 100 µM | HT-29 > 74.8 µM | SK-MEL-28 > 100 µM | 786-0 > 100 µM | SN12C > 100 µM | HL-60 > 46.8 µM | UO-31 > 100 µM | NCI-H522 > 100 µM | SK-OV-3 > 100 µM | NCI-H226 > 100 µM | UACC-62 > 100 µM | COLO 205 > 56.8 µM

O=C(Nc1nc2ncn(CCO)c2c(=O)[nH]1)c1ccccc1
inactive: SF-539 > 100 µM | M14 > 100 µM | OVCAR-8 > 100 µM | OVCAR-5 > 100 µM | SNB-75 > 100 µM | U-251 > 100 µM | EKVX > 100 µM | HOP-92 > 100 µM | HT-29 > 100 µM | SK-MEL-28 > 100 µM | 786-0 > 100 µM | SN12C > 100 µM | HL-60 > 100 µM | UO-31 > 100 µM | NCI-H522 > 100 µM | SK-OV-3 > 100 µM | NCI-H226 > 100 µM | UACC-62 > 100 µM | COLO 205 > 100 µM
